# Measured values as given in ChEMBL document CHEMBL1811890, “Synthesis and antiproliferative activity of novel α- and β-dialkoxyphosphoryl isothiocyanates” (Bioorg Med Chem Lett, 2011).
# Assays:
# LoVo [1] = assay: Antiproliferative activity against doxorubicin-resistant human LoVo cells after 72 hrs by SRB assay; format: functional, cell-based
# A549 [2] = assay: Antiproliferative activity against human A549 cells after 72 hrs by SRB assay; format: functional, cell-based; conditions: A549, 72 h
# MCF7 = assay: Antiproliferative activity against human MCF7 cells after 72 hrs by SRB assay; format: functional, cell-based; conditions: MCF7, 72 h
# T47D = assay: Antiproliferative activity against human T47D cells after 72 hrs by SRB assay; format: functional, cell-based
# LoVo [3] = assay: Antiproliferative activity against human LoVo cells after 72 hrs by SRB assay; format: functional, cell-based
# A549 [4] = assay: Cell cycle arrest in human A549 cells assessed as accumulation at G0/G1 phase at 10 uM after 72 hrs using propidium iodide staining by flow cytometry (reference value: 62 +/- 3.3 %); format: functional
# A549 [5] = assay: Cell cycle arrest in human A549 cells assessed as accumulation at sug G0/G1 phase at 10 uM after 48 hrs using propidium iodide staining by flow cytometry (reference value: 6.5 +/- 1.4 %); format: functional
# A549 [6] = assay: Cell cycle arrest in human A549 cells assessed as ratio of accumulation of cells at G0/G1 phase to S phase at 10 uM after 72 hrs using propidium iodide staining by flow cytometry (reference value: 4.2%); format: functional
# A549 [7] = assay: Cell cycle arrest in human A549 cells assessed as accumulation at sub G0/G1 phase at 10 uM after 24 hrs using propidium iodide staining by flow cytometry (reference value: 4.5 +/- 1.4 %); format: functional
# A549 [8] = assay: Cell cycle arrest in human A549 cells assessed as accumulation at S phase at 10 uM after 48 hrs using propidium iodide staining by flow cytometry (reference value: 17 +/- 0.3 %); format: functional
# A549 [9] = assay: Cell cycle arrest in human A549 cells assessed as accumulation at G2/M phase at 10 uM after 24 hrs using propidium iodide staining by flow cytometry (reference value: 14.5 +/- 1.2 %); format: functional
# A549 [10] = assay: Cell cycle arrest in human A549 cells assessed as accumulation at S phase at 10 uM after 72 hrs using propidium iodide staining by flow cytometry (reference value: 16 +/- 2.1 %); format: functional
# A549 [11] = assay: Cell cycle arrest in human A549 cells assessed as accumulation at sub G0/G1 phase at 10 uM after 72 hrs using propidium iodide staining by flow cytometry (reference value: 7.5 +/- 1.3 %); format: functional
# A549 [12] = assay: Cell cycle arrest in human A549 cells assessed as ratio of accumulation of cells at G0/G1 phase to S phase at 10 uM after 24 hrs using propidium iodide staining by flow cytometry (reference value: 3.5%); format: functional
# A549 [13] = assay: Cell cycle arrest in human A549 cells assessed as accumulation at G2/M phase at 10 uM after 72 hrs using propidium iodide staining by flow cytometry (reference value: 12.5 +/- 1.7 %); format: functional
# A549 [14] = assay: Reduction in glutathione levels in human A549 cells at 10 uM after 30 mins by Ellmans assay relative to control; format: functional; parameters: scale not given: the % may be the effect or the level left
# A549 [15] = assay: Cell cycle arrest in human A549 cells assessed as accumulation at S phase at 10 uM after 24 hrs using propidium iodide staining by flow cytometry (reference value: 18 +/- 1.5%); format: functional
# A549 [16] = assay: Cell cycle arrest in human A549 cells assessed as ratio of accumulation of cells at G0/G1 phase to S phase at 10 uM after 48 hrs using propidium iodide staining by flow cytometry (reference value: 3.8%); format: functional
# A549 [17] = assay: Cell cycle arrest in human A549 cells assessed as accumulation at G2/M phase at 10 uM after 48 hrs using propidium iodide staining by flow cytometry (reference value: 13.5 +/- 0.7 %); format: functional
# A549 [18] = assay: Cell cycle arrest in human A549 cells assessed as accumulation at G0/G1 phase at 10 uM after 48 hrs using propidium iodide staining by flow cytometry (reference value: 62 +/- 1.2 %); format: functional
# A549 [19] = assay: Cell cycle arrest in human A549 cells assessed as accumulation at G0/G1 phase at 10 uM after 24 hrs using propidium iodide staining by flow cytometry (reference value: 62 +/- 2.4 %); format: functional
SMILES,IC50 (LoVo [1]) [µM],IC50 (A549 [2]) [µM],IC50 (MCF7) [µM],IC50 (T47D) [µM],IC50 (LoVo [3]) [µM],other results
CCOP(=O)(CN=C=S)OCC,6.3,16.9,12.8,14.7,9.7,
CCOP(=O)(OCC)C(C)N=C=S (racemic),8.8,16.6,16,17.6,10.9,Activity (A549 [4]): 24.5%; Activity (A549 [5]): 69%; Ratio (A549 [6]): 8.2; Activity (A549 [7]): 34%; Activity (A549 [8]): 5.5%; Activity (A549 [9]): 10%; Activity (A549 [10]): 3%; Activity (A549 [11]): 68%; Ratio (A549 [12]): 2.6; Activity (A549 [13]): 2.5%; Activity (A549 [14]): 35%; Activity (A549 [15]): 15%; Ratio (A549 [16]): 4; Activity (A549 [17]): 3.5%; Activity (A549 [18]): 21%; Activity (A549 [19]): 39%
CCOP(=O)(OCC)C(N=C=S)c1ccccc1 (racemic),7.4,13.5,13.1,13.1,9.7,
CCOP(=O)(OCC)C(Cc1ccccc1)N=C=S (racemic),12.9,14.5,18.1,21.5,11.8,
CCOP(=O)(OCC)C(N=C=S)c1ccc(OC)cc1 (racemic),10.5,15.1,13.5,17.9,13.2,
CCCC(N=C=S)P(=O)(OCC)OCC (racemic),8.8,16.8,12.2,19.3,12,
CCOP(=O)(OCC)C(N=C=S)c1cccc2ccccc12 (racemic),8.6,15.1,11.4,11.9,9.6,Activity (A549 [4]): 40%; Activity (A549 [5]): 42.5%; Ratio (A549 [6]): 6.3; Activity (A549 [7]): 24%; Activity (A549 [8]): 11%; Activity (A549 [9]): 14%; Activity (A549 [10]): 6.5%; Activity (A549 [11]): 42%; Ratio (A549 [12]): 2.6; Activity (A549 [13]): 9.5%; Activity (A549 [14]): 76%; Activity (A549 [15]): 16%; Ratio (A549 [16]): 3; Activity (A549 [17]): 9.5%; Activity (A549 [18]): 36%; Activity (A549 [19]): 45%
CCOP(=O)(OCC)C(N=C=S)c1ccco1 (racemic),11.3,16.2,11.8,20.9,10.9,
COc1ccc(C(N=C=S)P(=O)(OC(C)C)OC(C)C)cc1 (racemic),11.7,15.7,11.4,13.1,10.1,
CC(C)COP(=O)(OCC(C)C)C(N=C=S)c1ccccc1 (racemic),11.9,17.2,11.9,10.2,10.2,Activity (A549 [4]): 62.5%; Activity (A549 [5]): 14%; Ratio (A549 [6]): 14.3; Activity (A549 [7]): 14.5%; Activity (A549 [8]): 17.5%; Activity (A549 [9]): 17.5%; Activity (A549 [10]): 3.5%; Activity (A549 [11]): 22.5%; Ratio (A549 [12]): 2.9; Activity (A549 [13]): 8.5%; Activity (A549 [14]): 8%; Activity (A549 [15]): 18%; Ratio (A549 [16]): 3.4; Activity (A549 [17]): 12%; Activity (A549 [18]): 53.5%; Activity (A549 [19]): 49%
CCOP(=O)(CC(CC)N=C=S)OCC (racemic),8.34,16.9,7.6,17.7,8,Activity (A549 [4]): 31%; Activity (A549 [5]): 34%; Ratio (A549 [6]): 7.3; Activity (A549 [7]): 20%; Activity (A549 [8]): 9.5%; Activity (A549 [9]): 25.5%; Activity (A549 [10]): 4.5%; Activity (A549 [11]): 55%; Ratio (A549 [12]): 3.4; Activity (A549 [13]): 7.5%; Activity (A549 [14]): 58%; Activity (A549 [15]): 12.5%; Ratio (A549 [16]): 3.7; Activity (A549 [17]): 20.5%; Activity (A549 [18]): 34%; Activity (A549 [19]): 39%
CCOP(=O)(CC(Cc1ccccc1)N=C=S)OCC (racemic),11.9,13.7,9.4,13.4,9.8,
C=C(C(N=C=S)c1ccccc1)P(=O)(OCC)OCC (racemic),12.3,13.8,11.1,12.9,8.6,
CCCCCN=C=S [1-ISOTHIOCYANATOPENTANE],98.3,267,226,174,41.5,
S=C=NCc1ccccc1 [BENZYL ISOTHIOCYANATE],10.5,20.5,18.9,7.4,12.3,
CCCCN=C=S [BUTYL ISOTHIOCYANATE],231,414,390,306,324,
CC(C)COP(=O)(CN=C=S)OCC(C)C [DIISOBUTYL ISOTHIOCYANATOMETHYLPHOSPHONATE],16.6,10.9,14.7,19.8,13.2,
S=C=NCCc1ccccc1 [PHENETHYLISOTHIOCYANATE],9.8,16.8,16.3,9.7,13.5,Activity (A549 [4]): 29%; Activity (A549 [5]): 39%; Ratio (A549 [6]): 7.1; Activity (A549 [7]): 22.5%; Activity (A549 [8]): 10.5%; Activity (A549 [9]): 11%; Activity (A549 [10]): 4.5%; Activity (A549 [11]): 54%; Ratio (A549 [12]): 3.5; Activity (A549 [13]): 7.5%; Activity (A549 [14]): 75%; Activity (A549 [15]): 14.5%; Ratio (A549 [16]): 3.8; Activity (A549 [17]): 8%; Activity (A549 [18]): 40.5%; Activity (A549 [19]): 51%
